Assay results taken from patent US20140142140A1, “PHARMACEUTICAL COMPOSITION FOR NEUROLOGICAL DISORDERS” (priority 2011, published 2014).

Experiments:
[1] = system: patients with autism / ASD / communication disorder; assay: Case reports, Autism and other Pervasive Development Disorders (Example 6); type: in vivo, human; details: for communication, family relationships, behavioural disturbance: 1 mg daily increased to 3 mg in divided doses daily
Source text: Patient 6A: Adult, diagnosed in childhood with autism and ADHD. A long history of behavioural disturbance with frequent episodes of violence despite treatment with high-dose antipsychotic medication. […] The high-dose antipsychotic medication has been reduced without any associated loss of recent benefit. […] A history of behavioural disturbance and educational impairment. […] Patient 6C was an adult, diagnosed in childhood with autism and ADHD with a history of behavioural disturbance and educational impairment. […] Patient 6D: Adult, diagnosed in childhood with autism, ADHD and antisocial personality traits. […] Patient C's conversation became more appropriate and consistent together with reported improvements in significant relationships. […] Patient 6E was an adult, diagnosed with communication disorder and major depression. […] Patient 6F was an adult with ASD. […] The patient's conversation became more appropriate and consistent and improvements in significant relationships were reported. A reduction in the reliance on alcohol to alleviate anxiety in social situations was observed. […] Sodium valproate was withdrawn and improvement was noted. […] Patient 6G was as adult, diagnosed in childhood with ASD. […] Sodium valproate was withdrawn. […] This has also been associated with improvements in reading and verbal understanding. These benefits have been sustained in some situations for three years. Although difficult to be objective, there seems to be good evidence of ongoing improvement. […] Improvements in coordination, in fine and gross motor control have been reported and improvement in gait which frequently is a significant issue for individuals with autistic disorders.

[2] = system: patient with spina bifida, ADHD, learning difficulties; assay: Case report, Spina Bifida (Example 11); type: in vivo, human
[3] = system: individuals with symptoms of ADHD
[4] = system: mood stabilisation or epileptic symptoms or events; details: per day; cited from earlier work

Compound: O=C1NC(=O)C(c2ccccc2)(c2ccccc2)N1 [phenyloin, 5,5-diphenylhydantoin]
- social interaction and conversation ([1]; Patient 6A, autism and ADHD, single test dose sublingual 1 mg): immediate improvement noted in their ability to socially interact and sustain limited conversation
- social interaction, home and day respite centre ([1]; Patient 6A, 4 mg sustained release daily): improvement was consistently noted
- behaviour after withdrawal ([1]; Patient 6A, withdrawal and recommencement): return of the behavioural disturbance which abated on recommencement
- communication, family relationships, behavioural disturbance ([1]; Patient 6B): sustained improvement in communication and family relationships together with a reduction in behavioural disturbance
- improvements at a higher dose or withdrawn ([1]; Patient 6B): Improvements were lost
- communication, family relationships, behavioural disturbance ([1]; Patient 6C): sustained improvement in communication and family relationships together with a reduction in behavioural disturbance
- improvements at a higher dose or withdrawn ([1]; Patient 6C): improvements were lost
- behaviour, verbal and non-verbal communication ([1]; Patient 6D, 2 mg daily): Significant improvement in behaviour, verbal and non-verbal communication
- benefit of increased dose ([1]; Patient 6D, 4 mg): No additional benefit
- non-verbal and verbal communication ([1]; autistic spectrum and social communication disorders, Ultra low dose, frequently below 5 mg): frequent instant improvement in both their non-verbal and verbal communication
- duration of sustained benefits in some situations ([1]; low dose): three years
- symptoms of Social Communication Disorder ([1]; ultra low dose): significant improvements in many patients
- duration of sustained improvements ([2]; Patient 11A): over 12 months
- social interaction, conversation, reading aloud, fine motor control and handwriting ([2]; Patient 11A (on low dose methylphenidate), sublingual dose 1 mg): significant improvement
- dose associated with optimal response ([2]; Patient 11A, daily in two divided doses): 1.5 mg
- efficacy after dose increase ([2]; Patient 11A, dose increased to 2 mg): loss of efficacy
- duration of improvement on ceasing before deterioration ([3]; Patient 3A): up to 7 days
- most efficacious dose ([3]; Patient 3A): 0.1 mg daily
- ADHD symptoms, clinical response ([3]; Patient 3A (on tricyclic antidepressant and dexamphetamine), 30 mg capsule): temporarily associated with improvement in clarity of thoughts and eye contact during conversation
- clinical response on reintroduction at a lower dose ([3]; Patient 3A, lower dose): initial benefit that associated with rapid loss of efficacy
- functioning after withdrawal ([3]; Patient 3A, phenyloin withdrawn): initial improvement then later worsening to the pre-phenyloin functioning
- side effects of higher doses ([3]; in vivo): significant cognitive side effects
- efficacy of higher doses ([3]; individuals with symptoms of ADHD, higher doses): ineffective
- symptoms of ADHD, clinical response ([3]; individuals with symptoms of ADHD, ultra low doses): improvements were noted
- Minimum typical dose/day effective for mood stabilisation or treatment of epileptic symptoms or events [4]: 200 mg
